Where two headings read alike, the source gives them in different places.
Columns and labels:
Type in all cases: biochemical
[1] = target: 320 wild-type protein kinases (Homo sapiens, UniProt O75582); conditions: kinase RPS6KA5, singlicate
From the text: (§1) Table S4. Profiling of two compounds at two concentrations against 320 wild-type protein kinases; singlicate measurement; Residual activities (% of control).

[2] = target: 320 wild-type protein kinases (Homo sapiens, UniProt P07949); conditions: kinase RET, singlicate
Sequence of 320 wild-type protein kinases (Homo sapiens, UniProt P07949) (P07949 29-1114): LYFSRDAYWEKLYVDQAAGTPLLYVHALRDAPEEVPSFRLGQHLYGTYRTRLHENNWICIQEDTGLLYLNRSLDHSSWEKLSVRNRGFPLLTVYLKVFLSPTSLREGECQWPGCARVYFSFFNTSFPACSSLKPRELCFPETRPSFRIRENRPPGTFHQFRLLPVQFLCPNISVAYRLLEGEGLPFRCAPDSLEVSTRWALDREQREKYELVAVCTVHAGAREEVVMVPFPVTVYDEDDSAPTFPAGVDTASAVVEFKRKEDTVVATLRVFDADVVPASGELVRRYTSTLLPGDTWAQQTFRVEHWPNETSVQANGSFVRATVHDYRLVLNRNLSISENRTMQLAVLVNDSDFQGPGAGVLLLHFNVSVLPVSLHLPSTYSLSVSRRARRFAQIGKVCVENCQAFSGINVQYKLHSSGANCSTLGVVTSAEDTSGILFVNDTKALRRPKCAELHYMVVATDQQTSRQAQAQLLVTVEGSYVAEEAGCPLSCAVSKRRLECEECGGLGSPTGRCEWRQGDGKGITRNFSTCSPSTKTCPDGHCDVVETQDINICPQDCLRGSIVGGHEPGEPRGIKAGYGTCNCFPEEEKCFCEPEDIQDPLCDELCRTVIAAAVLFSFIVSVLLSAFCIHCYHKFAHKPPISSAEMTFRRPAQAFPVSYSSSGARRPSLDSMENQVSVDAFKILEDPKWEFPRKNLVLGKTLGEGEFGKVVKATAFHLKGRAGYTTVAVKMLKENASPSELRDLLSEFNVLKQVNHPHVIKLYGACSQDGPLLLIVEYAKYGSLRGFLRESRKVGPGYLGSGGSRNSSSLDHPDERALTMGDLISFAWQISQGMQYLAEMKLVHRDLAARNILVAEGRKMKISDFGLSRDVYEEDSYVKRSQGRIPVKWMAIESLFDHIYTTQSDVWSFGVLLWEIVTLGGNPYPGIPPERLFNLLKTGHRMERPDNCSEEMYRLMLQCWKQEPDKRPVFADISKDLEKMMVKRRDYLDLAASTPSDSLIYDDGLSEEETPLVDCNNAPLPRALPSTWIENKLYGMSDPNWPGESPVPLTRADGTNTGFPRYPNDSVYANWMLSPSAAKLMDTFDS
From the text: as §1

[3] = target: T1, 320 wild-type protein kinases (Homo sapiens, UniProt P33981); conditions: kinase TTK, singlicate
T1 sequence (P33981 1-857): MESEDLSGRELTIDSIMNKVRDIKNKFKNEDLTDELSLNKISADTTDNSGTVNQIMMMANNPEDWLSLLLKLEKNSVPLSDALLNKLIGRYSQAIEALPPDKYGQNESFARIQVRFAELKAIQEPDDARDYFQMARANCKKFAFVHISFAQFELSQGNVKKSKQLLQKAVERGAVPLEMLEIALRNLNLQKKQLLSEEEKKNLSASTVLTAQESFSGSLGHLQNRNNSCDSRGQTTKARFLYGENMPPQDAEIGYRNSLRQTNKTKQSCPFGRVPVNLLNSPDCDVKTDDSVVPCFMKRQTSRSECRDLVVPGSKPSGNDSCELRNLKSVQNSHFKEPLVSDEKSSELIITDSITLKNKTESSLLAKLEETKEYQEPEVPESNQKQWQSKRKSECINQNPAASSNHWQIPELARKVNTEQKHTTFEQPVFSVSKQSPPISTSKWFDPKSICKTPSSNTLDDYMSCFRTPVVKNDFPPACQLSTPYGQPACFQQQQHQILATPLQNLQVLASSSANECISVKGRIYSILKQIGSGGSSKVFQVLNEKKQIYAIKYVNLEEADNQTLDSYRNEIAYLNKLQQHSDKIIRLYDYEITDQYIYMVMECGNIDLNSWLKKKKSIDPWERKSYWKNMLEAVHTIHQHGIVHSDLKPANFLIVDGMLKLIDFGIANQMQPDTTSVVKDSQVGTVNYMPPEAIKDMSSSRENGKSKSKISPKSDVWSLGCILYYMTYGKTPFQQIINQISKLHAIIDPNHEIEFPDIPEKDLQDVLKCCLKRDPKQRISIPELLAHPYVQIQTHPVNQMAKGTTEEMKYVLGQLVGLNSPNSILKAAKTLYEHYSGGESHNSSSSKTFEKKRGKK
From the text: as §1

[4] = target: 320 wild-type protein kinases (Homo sapiens, UniProt P42684); conditions: singlicate
From the text: as §1

[5] = target: 320 wild-type protein kinases (Homo sapiens, UniProt P49674); conditions: CK1-epsilon, singlicate
Sequence of 320 wild-type protein kinases (Homo sapiens, UniProt P49674) (P49674 whole entry): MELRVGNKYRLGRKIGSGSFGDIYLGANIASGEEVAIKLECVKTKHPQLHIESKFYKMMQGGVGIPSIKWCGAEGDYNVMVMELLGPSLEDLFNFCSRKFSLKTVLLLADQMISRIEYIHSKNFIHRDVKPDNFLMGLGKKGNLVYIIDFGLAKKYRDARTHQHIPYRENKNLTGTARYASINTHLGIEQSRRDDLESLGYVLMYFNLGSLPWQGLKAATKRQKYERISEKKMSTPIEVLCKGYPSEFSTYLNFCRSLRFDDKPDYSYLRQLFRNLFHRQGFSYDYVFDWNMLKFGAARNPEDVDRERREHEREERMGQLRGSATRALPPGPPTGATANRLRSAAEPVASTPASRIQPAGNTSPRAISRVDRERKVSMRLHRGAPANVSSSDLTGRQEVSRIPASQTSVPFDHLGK
From the text: as §1

[6] = target: 320 wild-type protein kinases (Homo sapiens, UniProt P54764); conditions: singlicate
Sequence of 320 wild-type protein kinases (Homo sapiens, UniProt P54764) (P54764 20-986): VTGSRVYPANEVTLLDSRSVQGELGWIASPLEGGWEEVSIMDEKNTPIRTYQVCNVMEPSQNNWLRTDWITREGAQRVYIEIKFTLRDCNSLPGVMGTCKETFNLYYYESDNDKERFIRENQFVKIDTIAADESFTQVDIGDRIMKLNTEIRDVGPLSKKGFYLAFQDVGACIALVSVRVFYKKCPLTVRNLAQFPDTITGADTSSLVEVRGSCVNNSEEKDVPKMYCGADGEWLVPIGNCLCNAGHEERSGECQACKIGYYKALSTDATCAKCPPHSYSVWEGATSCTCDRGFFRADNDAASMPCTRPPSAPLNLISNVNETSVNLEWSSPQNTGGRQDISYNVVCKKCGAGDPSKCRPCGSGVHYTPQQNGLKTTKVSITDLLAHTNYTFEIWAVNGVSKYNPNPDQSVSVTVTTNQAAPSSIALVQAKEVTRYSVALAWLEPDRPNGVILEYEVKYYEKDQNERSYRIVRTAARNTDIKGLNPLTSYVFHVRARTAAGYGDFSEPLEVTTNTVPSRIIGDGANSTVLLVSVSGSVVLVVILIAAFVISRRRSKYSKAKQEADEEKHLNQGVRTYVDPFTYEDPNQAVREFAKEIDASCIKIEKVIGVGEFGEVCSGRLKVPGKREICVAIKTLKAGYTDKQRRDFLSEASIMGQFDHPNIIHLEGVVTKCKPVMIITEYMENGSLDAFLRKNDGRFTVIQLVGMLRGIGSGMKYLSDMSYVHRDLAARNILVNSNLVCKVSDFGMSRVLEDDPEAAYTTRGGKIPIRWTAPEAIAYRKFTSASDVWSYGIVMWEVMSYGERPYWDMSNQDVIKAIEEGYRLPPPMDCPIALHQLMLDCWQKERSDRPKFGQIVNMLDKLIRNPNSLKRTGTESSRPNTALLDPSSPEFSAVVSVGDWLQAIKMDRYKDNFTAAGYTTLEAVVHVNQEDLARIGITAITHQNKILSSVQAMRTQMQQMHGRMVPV
From the text: as §1

[7] = target: 320 wild-type protein kinases (Homo sapiens, UniProt Q02750); conditions: singlicate
Sequence of 320 wild-type protein kinases (Homo sapiens, UniProt Q02750) (Q02750 whole entry): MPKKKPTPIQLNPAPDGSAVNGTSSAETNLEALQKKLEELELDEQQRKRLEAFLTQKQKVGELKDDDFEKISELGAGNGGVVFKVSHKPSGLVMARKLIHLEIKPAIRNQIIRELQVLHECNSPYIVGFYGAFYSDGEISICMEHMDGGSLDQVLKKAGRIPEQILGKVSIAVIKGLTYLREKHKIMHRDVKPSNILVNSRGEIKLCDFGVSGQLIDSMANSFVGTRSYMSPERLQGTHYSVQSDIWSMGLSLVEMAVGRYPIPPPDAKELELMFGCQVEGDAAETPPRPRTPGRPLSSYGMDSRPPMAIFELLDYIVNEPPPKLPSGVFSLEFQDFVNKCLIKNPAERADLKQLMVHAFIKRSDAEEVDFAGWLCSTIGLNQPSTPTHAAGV
From the text: as §1

[8] = target: T2, 320 wild-type protein kinases (Homo sapiens, UniProt Q09013); conditions: DMPK, singlicate
T2 sequence (Q09013 1-629): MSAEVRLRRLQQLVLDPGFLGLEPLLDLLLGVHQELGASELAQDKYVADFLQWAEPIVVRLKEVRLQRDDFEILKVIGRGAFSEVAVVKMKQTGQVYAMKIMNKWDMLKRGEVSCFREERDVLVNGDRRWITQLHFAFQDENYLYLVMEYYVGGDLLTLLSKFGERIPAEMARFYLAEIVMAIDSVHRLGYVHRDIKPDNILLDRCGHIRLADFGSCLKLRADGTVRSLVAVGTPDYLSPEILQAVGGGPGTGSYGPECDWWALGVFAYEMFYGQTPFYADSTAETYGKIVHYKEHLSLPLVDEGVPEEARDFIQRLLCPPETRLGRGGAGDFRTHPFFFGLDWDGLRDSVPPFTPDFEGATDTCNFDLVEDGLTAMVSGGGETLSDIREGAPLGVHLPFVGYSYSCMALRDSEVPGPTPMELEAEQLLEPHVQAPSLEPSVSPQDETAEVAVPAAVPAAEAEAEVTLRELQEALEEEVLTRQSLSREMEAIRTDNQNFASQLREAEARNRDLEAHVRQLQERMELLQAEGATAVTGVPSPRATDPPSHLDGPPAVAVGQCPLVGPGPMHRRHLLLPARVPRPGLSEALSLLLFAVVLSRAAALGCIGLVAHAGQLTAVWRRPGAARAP
From the text: as §1

[9] = target: 320 wild-type protein kinases (Homo sapiens, UniProt Q14289); conditions: kinase PYK2, singlicate
Sequence of 320 wild-type protein kinases (Homo sapiens, UniProt Q14289) (Q14289 whole entry): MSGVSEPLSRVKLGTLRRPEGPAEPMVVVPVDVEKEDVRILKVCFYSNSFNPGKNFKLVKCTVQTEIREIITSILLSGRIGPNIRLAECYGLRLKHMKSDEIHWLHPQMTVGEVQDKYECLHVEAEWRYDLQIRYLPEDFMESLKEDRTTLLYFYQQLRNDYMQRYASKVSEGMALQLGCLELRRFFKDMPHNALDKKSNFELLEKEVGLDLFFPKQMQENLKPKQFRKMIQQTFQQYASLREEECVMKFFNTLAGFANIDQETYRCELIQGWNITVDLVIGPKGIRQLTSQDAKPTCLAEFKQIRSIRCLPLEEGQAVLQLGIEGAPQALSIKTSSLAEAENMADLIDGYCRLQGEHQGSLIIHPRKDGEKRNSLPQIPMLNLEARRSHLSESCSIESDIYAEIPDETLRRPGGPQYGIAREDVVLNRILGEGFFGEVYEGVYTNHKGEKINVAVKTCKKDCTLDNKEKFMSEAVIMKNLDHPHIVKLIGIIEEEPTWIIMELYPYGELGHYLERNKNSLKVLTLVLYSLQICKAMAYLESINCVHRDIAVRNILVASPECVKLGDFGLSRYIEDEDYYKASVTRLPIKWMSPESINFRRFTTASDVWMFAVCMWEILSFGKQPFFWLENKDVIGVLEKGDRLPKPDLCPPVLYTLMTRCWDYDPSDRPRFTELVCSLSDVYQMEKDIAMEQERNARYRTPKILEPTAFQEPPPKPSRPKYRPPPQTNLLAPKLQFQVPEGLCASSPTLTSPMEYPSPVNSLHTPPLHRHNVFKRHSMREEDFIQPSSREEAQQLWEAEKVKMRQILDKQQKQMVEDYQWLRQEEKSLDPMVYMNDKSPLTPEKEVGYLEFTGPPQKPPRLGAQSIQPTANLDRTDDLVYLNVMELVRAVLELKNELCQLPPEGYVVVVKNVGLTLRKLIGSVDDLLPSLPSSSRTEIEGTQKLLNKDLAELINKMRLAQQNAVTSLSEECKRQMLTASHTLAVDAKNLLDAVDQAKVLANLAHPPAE
From the text: as §1

[10] = target: 320 wild-type protein kinases (Homo sapiens, UniProt Q16584); conditions: singlicate
From the text: as §1

[11] = target: T3, 320 wild-type protein kinases (Homo sapiens, UniProt Q9NR20); conditions: singlicate
T3 sequence (Q9NR20 1-520): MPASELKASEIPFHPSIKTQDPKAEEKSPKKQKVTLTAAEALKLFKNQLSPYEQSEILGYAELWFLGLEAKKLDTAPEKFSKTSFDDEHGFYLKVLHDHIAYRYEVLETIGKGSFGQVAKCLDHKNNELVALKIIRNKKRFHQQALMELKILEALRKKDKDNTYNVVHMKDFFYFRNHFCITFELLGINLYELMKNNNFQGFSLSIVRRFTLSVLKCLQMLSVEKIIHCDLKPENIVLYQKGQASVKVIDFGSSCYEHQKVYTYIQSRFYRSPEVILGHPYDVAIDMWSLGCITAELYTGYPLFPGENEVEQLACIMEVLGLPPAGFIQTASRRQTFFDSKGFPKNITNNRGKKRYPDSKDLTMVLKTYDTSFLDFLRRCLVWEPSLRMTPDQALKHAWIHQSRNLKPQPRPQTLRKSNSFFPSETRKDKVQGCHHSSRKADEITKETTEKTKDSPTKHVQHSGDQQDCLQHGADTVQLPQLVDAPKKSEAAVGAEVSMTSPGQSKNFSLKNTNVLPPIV
From the text: as §1

Sequence of 320 wild-type protein kinases (Homo sapiens, UniProt O75582) (O75582 whole entry): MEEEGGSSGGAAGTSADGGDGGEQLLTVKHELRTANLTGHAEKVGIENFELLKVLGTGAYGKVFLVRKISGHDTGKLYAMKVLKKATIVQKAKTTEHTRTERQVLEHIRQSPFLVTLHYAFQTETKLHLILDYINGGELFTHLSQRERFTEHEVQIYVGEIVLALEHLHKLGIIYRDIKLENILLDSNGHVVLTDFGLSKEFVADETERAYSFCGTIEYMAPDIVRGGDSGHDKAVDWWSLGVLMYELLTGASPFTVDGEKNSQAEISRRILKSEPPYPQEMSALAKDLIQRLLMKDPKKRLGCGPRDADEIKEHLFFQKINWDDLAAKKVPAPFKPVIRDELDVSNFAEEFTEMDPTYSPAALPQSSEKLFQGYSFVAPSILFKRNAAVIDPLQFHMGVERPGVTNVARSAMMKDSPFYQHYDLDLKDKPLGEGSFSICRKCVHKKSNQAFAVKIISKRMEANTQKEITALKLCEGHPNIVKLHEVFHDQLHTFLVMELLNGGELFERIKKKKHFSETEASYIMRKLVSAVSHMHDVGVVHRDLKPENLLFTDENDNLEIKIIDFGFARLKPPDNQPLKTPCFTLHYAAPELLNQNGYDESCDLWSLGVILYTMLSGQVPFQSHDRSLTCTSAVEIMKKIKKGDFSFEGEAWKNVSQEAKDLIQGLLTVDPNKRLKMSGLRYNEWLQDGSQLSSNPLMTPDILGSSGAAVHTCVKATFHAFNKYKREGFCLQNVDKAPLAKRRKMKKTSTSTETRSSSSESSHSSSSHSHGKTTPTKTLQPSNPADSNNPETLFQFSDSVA

| Compound | Residual activity, RPS6KA5 ([1]; assay conc. 1.0E-06 M) | Residual activity, RPS6KA5 ([1]; assay conc. 1.0E-07 M) | Residual activity, RET ([2]; assay conc. 1.0E-06 M) | Residual activity, RET ([2]; assay conc. 1.0E-07 M) | Residual activity, TTK ([3]; assay conc. 1.0E-06 M) | Residual activity, TTK ([3]; assay conc. 1.0E-07 M) | Residual activity ([4]; ABL2, 1.0E-06 M) | Residual activity ([4]; ABL2, 1.0E-07 M) | Residual activity ([5]; 1.0E-06 M) | Residual activity ([5]; 1.0E-07 M) | Residual activity ([6]; EPHA4, 1.0E-06 M) | Residual activity ([6]; EPHA4, 1.0E-07 M) | Residual activity ([7]; MEK1, 1.0E-06 M) | Residual activity ([7]; MEK1, 1.0E-07 M) | Residual activity ([8]; 1.0E-06 M) | Residual activity ([8]; 1.0E-07 M) | Residual activity, PYK2 ([9]; assay conc. 1.0E-06 M) | Residual activity, PYK2 ([9]; assay conc. 1.0E-07 M) | Residual activity ([10]; MAP3K11, 1.0E-06 M) | Residual activity ([10]; MAP3K11, 1.0E-07 M) | further results |
| --- | --- | --- | --- | --- | --- | --- | --- | --- | --- | --- | --- | --- | --- | --- | --- | --- | --- | --- | --- | --- | --- |
| C#Cc1cc(Nc2ncnc3cc(I)ccc23)ccc1Cl [Compound 41] | 99 % of control | 112 % of control | 85 % of control | 102 % of control | 81 % of control | 100 % of control | 97 % of control | 106 % of control | 118 % of control | 124 % of control | 83 % of control | 96 % of control | 104 % of control | 109 % of control | 106 % of control | 121 % of control | 97 % of control | 103 % of control | 73 % of control | 75 % of control | Residual activity ([11]; DYRK4, 1.0E-06 M): 96 % of control; Residual activity ([11]; DYRK4, 1.0E-07 M): 99 % of control |
| C#Cc1cc(Nc2ncnc3cc(OC)c(OC)cc23)ccc1Cl [Compound 45] | 107 % of control | 104 % of control | 51 % of control | 101 % of control | 83 % of control | 97 % of control | 68 % of control | 96 % of control | 120 % of control | 124 % of control | 61 % of control | 99 % of control | 109 % of control | 105 % of control | 104 % of control | 103 % of control | 92 % of control | 95 % of control | 59 % of control | 79 % of control | Residual activity ([11]; DYRK4, 1.0E-06 M): 97 % of control; Residual activity ([11]; DYRK4, 1.0E-07 M): 116 % of control |
